For experiment [1], the system named is CEM-SS. As to the kind of experiment: Inhibitory activity against cytopathic effect of HIV-IIIB strain in CEM-SS cells. Type of experiment: functional, cell-based. As to conditions: Homo sapiens. (Protection from cytopathic effect is a common read-out in antiviral testing.)
Experiment [2] concerns CEM-SS. As to the kind of experiment: Inhibitory activity against cytopathic effect of VIHU(NSI) clinical isolate in CEM-SS cells. Type of experiment: functional, cell-based. As to conditions: Homo sapiens.
Experiment [3] in a line: The compound was tested for inhibitory activity against gp120 binding to CD4 of peripheral blood lymphocytes (PBL). The class given is functional, Homo sapiens.
Experiment [4] has as its system CEM-SS. As to the kind of experiment: The compound was tested for inhibition of HIV-1 attachment to CEM-SS cells. Type of experiment: functional, cell-based. As to conditions: Homo sapiens.
For experiment [5], the system named is CEM-SS. As to the kind of experiment: Inhibitory activity against cytopathic effect of HIV-1RF in CEM-SS cells. The class given is functional, cell-based. As to conditions: Homo sapiens.
The nature of experiment [6]: The compound was tested for inhibitory against fusion of HL-2/3 cells towards HeLa-CD4-LTR-beta-gal cells. Type of experiment: functional, cell-based, Homo sapiens.

The EC50 is the concentration needed to bring the measured effect to its halfway point. As usually defined, the IC50 is the concentration needed to halve the response being measured. A low value points to inhibition by little substance.

For `CC(C)CCCC(C)[C@H]1CC[C@H]2[C@@H]3CCC4C[C@@H](CCC=C(c5cc(Cl)c(O)c(C(=O)O)c5)c5cc(Cl)c(O)c(C(=O)O)c5)CC[C@]4(C)[C@H]3CC[C@]12C` (stereo partly specified), the EC50 worked out at 3.4 µM in the experiment on CEM-SS [1] and 80.2 µM in the experiment on CEM-SS [2]. In experiment [3], the IC50 is 7.8 µM.
Consider `CC(C)CCCC(C)[C@H]1CC[C@H]2[C@@H]3CCC4C[C@@H](CCC=C(c5cc(Cl)c(OCc6ccc(C(=O)O)cc6)c(C(=O)O)c5)c5cc(Cl)c(OCc6ccc(C(=O)O)cc6)c(C(=O)O)c5)CC[C@]4(C)[C@H]3CC[C@]12C` (stereo partly specified), for which the IC50 in the experiment on CEM-SS [4] worked out at 72 µM; in experiment [6], 2700 nM. This compound had an EC50 with CEM-SS [5] of 550 nM.
